The target of assay [1] is T1, Protein deacetylase HDAC6 (Homo sapiens, UniProt Q9UBN7).
T1 sequence (Q9UBN7 whole entry): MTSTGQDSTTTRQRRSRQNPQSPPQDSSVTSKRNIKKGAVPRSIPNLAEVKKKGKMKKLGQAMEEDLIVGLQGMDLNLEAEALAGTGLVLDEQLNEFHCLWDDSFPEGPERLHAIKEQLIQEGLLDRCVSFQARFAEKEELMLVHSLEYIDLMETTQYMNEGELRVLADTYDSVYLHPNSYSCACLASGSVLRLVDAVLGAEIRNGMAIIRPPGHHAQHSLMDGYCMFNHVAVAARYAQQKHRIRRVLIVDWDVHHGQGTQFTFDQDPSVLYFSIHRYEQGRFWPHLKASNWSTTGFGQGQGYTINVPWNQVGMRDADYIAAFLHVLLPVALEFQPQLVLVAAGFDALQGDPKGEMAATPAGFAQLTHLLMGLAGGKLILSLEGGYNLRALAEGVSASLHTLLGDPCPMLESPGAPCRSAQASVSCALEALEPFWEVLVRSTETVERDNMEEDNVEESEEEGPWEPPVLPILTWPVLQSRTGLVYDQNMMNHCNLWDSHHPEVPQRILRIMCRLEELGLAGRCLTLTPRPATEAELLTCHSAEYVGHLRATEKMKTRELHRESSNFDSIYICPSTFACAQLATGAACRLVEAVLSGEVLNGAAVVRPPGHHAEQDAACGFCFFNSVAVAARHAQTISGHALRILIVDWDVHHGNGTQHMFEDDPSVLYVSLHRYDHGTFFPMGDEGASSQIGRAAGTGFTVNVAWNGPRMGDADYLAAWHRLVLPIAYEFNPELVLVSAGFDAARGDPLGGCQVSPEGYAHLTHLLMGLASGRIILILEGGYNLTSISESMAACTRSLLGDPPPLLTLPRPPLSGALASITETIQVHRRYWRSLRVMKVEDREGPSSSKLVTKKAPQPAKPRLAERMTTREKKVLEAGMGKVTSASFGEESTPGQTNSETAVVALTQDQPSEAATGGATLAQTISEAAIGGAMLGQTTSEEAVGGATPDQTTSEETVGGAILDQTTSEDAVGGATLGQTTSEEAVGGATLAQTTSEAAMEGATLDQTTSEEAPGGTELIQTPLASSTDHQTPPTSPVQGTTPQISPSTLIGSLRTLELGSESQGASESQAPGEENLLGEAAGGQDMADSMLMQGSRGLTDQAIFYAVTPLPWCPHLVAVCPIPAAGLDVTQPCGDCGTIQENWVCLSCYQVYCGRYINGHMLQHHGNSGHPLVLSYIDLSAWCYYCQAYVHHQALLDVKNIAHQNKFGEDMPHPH
The assay can be described thus: Inhibition of human HDAC6 using rhodamine as substrate after 1 hrs by fluorescence assay.

The target in the next assay is Histone deacetylase 2 (Homo sapiens, UniProt Q92769). The assay can be described thus: Inhibition of human HDAC2 using rhodamine as substrate after 1 hrs by fluorescence assay.
Histone deacetylase 2, sequence (Q92769 whole entry): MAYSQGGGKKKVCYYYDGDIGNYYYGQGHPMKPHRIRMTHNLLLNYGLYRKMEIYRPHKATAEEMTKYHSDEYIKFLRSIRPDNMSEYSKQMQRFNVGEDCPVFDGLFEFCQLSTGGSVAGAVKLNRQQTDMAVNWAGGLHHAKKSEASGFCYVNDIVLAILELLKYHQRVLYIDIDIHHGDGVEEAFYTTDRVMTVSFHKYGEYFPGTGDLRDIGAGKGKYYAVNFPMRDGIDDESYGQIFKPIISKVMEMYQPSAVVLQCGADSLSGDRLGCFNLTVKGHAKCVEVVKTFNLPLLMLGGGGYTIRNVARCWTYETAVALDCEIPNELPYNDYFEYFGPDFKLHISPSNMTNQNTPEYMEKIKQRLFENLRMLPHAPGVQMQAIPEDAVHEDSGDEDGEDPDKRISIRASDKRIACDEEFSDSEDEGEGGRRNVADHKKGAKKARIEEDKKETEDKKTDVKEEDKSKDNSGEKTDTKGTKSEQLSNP
The target in a further assay is Histone deacetylase 1 (Homo sapiens, UniProt Q13547). In words: Inhibition of human HDAC1 using rhodamine as substrate after 1 hrs by fluorescence assay.
Histone deacetylase 1, sequence (Q13547 whole entry): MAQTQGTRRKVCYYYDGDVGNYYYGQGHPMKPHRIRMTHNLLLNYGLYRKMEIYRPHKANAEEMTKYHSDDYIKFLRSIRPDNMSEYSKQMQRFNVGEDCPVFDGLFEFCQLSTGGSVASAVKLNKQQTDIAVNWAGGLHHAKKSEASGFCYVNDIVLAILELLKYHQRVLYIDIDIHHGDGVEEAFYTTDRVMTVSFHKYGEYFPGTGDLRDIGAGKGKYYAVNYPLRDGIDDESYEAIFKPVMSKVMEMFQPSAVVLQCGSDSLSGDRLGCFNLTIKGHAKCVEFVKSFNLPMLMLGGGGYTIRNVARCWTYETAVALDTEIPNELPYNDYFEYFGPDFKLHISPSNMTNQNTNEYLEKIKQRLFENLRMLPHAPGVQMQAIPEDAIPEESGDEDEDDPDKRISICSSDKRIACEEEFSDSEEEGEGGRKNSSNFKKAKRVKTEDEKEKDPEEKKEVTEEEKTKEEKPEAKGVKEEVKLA

As usually defined, the IC50 is the concentration needed to halve the response being measured. A lower IC50 goes with greater potency in that assay.

Regarding `N[C@H](Cc1cccc(Cl)c1)C(=O)N1CCN(C(=O)c2cc(F)ccc2F)CC1`, the IC50 (in assay [1]; at Histone deacetylase 2; against Histone deacetylase 1) was over 30 µM each time.

Turning to `N[C@H](Cc1ccc(Cl)cc1Cl)C(=O)N1Cc2ccccc2C1`, the results for the IC50 (in assay [1]; at Histone deacetylase 2) were over 30 µM and 3.9 µM, respectively.

Values taken from ChEMBL document CHEMBL1811912, “Human HDAC isoform selectivity achieved via exploitation of the acetate release channel with structurally unique small molecule inhibitors” (Bioorg Med Chem, 2011).
